Test results: patent US20160108027A1, “SUBSTITUTED BENZOXAZOLES” (BAYER PHARMA AKTIENGESELLSCHAFT, priority 2013, published 2016)

Tests used:
thrombin [1] = target: T1, thrombin (Homo sapiens, UniProt P00734); assay: Determination of the thrombin-inhibitory activity in plasma samples (ecarin-activated); format: biochemical; conditions: citrate plasma, ecarin activation, fluorogenic thrombin substrate; in some cases means of individual determinations
How it was run: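 Citrate plasma activated with ecarin (final 20 mU per reaction) in Ca buffer (Hepes, NaCl, CaCl2, PEG), with compound diluted from DMSO into water. Fluorogenic thrombin substrate at final 50 μmol/l; fluorescence (ex 360/em 465 nm) read each minute for 20 minutes, with buffer-only unstimulated control.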

thrombin [2] = target: T1, thrombin; assay: Measurement of the thrombin inhibition in buffer; format: biochemical; conditions: human thrombin 0.06 nmol/l in Tris buffer pH 7.4, 22° C., substrate Boc-Asp(OBzl)-Pro-Arg-AMC; in some cases means of individual determinations
How it was run: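 Compound pre-incubated 15 min at 22° C with 0.06 nmol/l human thrombin in 50 mmol/l Tris, 100 mmol/l NaCl, 0.1% BSA, pH 7.4, then 5 μmol/l Boc-Asp(OBzl)-Pro-Arg-AMC added for 30 min. AMC fluorescence read at 360/460 nm against DMSO controls; IC50 from concentration–activity curves.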

| IC50 (thrombin [1]) [nM] | IC50 (thrombin [2]) [nM] | SMILES |
| --- | --- | --- |
| 39 | 31 | COc1cc(C(=O)N2C[C@H](OC3CC3)C[C@H]2C(=O)N2CC(F)(F)C2)cc2nc(NCc3cc(Cl)ccn3)oc12 [Example 10, (2-{[(4-Chloropyridin-2-yl)methyl]amino}-7-methoxy-1,3-benzoxazol-5-yl){(2S,4R)-4-(cyclopropyloxy)-2-[(3,3-difluoroazetidin-1-yl)carbonyl]pyrrolidin-1-yl}methanone] |
| 101 | 31 | COc1cc(C(=O)N2C[C@H](OC3CC3)C[C@H]2C(=O)N2CC(F)C2)cc2nc(NCc3cc(Cl)ccn3)oc12 [Example 11, (2-{[(4-Chloropyridin-2-yl)methyl]amino}-7-methoxy-1,3-benzoxazol-5-yl){(2S,4R)-4-(cyclopropyloxy)-2-[(3-fluoroazetidin-1-yl)carbonyl]pyrrolidin-1-yl}methanone] |
| 8.9 | 4.4 | COc1cc(C(=O)N2C[C@H](OC3CC3)C[C@H]2CO)cc2nc(NCc3cc(Cl)ccn3)oc12 [Example 12, (2-{[(4-Chloropyridin-2-yl)methyl]amino}-7-methoxy-1,3-benzoxazol-5-yl)[(2S,4R)-4-(cyclopropyloxy)-2-(hydroxymethyl)pyrrolidin-1-yl]methanone] |
| 31 | 21 | COc1cc(C(=O)N2C[C@H](OC3CC3)C[C@H]2CO)cc2nc(NC(C)c3cc(Cl)ccn3)oc12 (stereo partly drawn) [Example 13, (2-{[1-(4-Chloropyridin-2-yl)ethyl]amino}-7-methoxy-1,3-benzoxazol-5-yl)[(2S,4R)-4-(cyclopropyloxy)-2-(hydroxymethyl)pyrrolidin-1-yl]methanone] |
| 55 | 10 | COc1cc(C(=O)N2CC(C)(CCO)OCC2CF)cc2nc(NCc3cc(Cl)ccn3)oc12 (stereo not shown) [Example 21, (2-{[(4-Chloropyridin-2-yl)methyl]amino}-7-methoxy-1,3-benzoxazol-5-yl) [5-(fluoromethyl)-2-(2-hydroxyethyl)-2-methylmorpholin-4-yl]methanone] |
| 44 | 6.2 | COc1cc(C(=O)N2CC(C)(CC(C)O)OC[C@H]2C)cc2nc(NC(C)c3cc(Cl)ccn3)oc12 (stereo partly drawn) [Example 26, (2-{[1-(4-Chloropyridin-2-yl)ethyl]amino}-7-methoxy-1,3-benzoxazol-5-yl)[(5R)-2-(2-hydroxypropyl)-2,5-dimethylmorpholin-4-yl]methanone] |
| 17 | 3.2 | CC[C@@H]1COC(C)(CCO)CN1C(=O)c1cc(OC)c2oc(NCc3cc(Cl)ccn3)nc2c1 (stereo partly shown) [Example 28] |
| 65 | 25 | COCC1COC(C)(CCO)CN1C(=O)c1cc(OC)c2oc(NCc3cc(Cl)ccn3)nc2c1 (stereo not shown) [Example 30] |
| 23 | 14 | COc1cc(C(=O)N2CC(C)OCC2C2CC(O)C2)cc2nc(NCc3cc(Cl)ccn3)oc12 (stereo not shown) [Example 46, (2-{[(4-Chloropyridin-2-yl)methyl]amino}-7-methoxy-1,3-benzoxazol-5-yl) [5-(3-hydroxycyclobutyl)-2-methylmorpholin-4-yl]methanone] |
| 35 | 11 | COc1cc(C(=O)N2CC(C)(CCO)OCC2C(F)F)cc2nc(NCc3cc(Cl)ccn3)oc12 (stereo not shown) [Example 54, (2-{[(4-Chloropyridin-2-yl)methyl]amino}-7-methoxy-1,3-benzoxazol-5-yl) [5-(difluormethyl)-2-(2-hydroxyethyl)-2-methylmorpholin-4-yl]methanone] |
| 27 | 17 | COc1cc(C(=O)N2CC(C)(C)OC[C@H]2CCO)cc2nc(NCc3cc(Cl)ccn3)oc12 [Example 58, (2-{[(4-Chloropyridin-2-yl)methyl]amino}-7-methoxy-1,3-benzoxazol-5-yl)[(5R)-5-(2-hydroxyethyl)-2,2-dimethylmorpholin-4-yl]methanone] |
| 90 | 60 | COc1cc(C(=O)N2CC(C)(C)OC[C@H]2CCO)cc2nc(NC(C)c3cc(Cl)ccn3)oc12 (stereo partly drawn) [Example 59, (2-{[1-(4-Chloropyridin-2-yl)ethyl]amino}-7-methoxy-1,3-benzoxazol-5-yl)[(5R)-5-(2-hydroxyethyl)-2,2-dimethylmorpholin-4-yl]methanone] |
| 72 | 59 | COc1cc(C(=O)N2CC(C)OC[C@@H]2[C@@H](C)O)cc2nc(NCc3cc(Cl)ccn3)oc12 (stereo partly drawn) [Example 68, (2-{[(4-Chloropyridin-2-yl)methyl]amino}-7-methoxy-1,3-benzoxazol-5-yl){(5R)-5-[(1R)-1-hydroxyethyl]-2-methylmorpholin-4-yl}methanone] |
| 27 | 17 | COc1cc(C(=O)N2CC(C)(C)OCC2(C)C(C)O)cc2nc(NCc3cc(Cl)ccn3)oc12 (stereo not shown) [Example 69, (2-{[(4-Chloropyridin-2-yl)methyl]amino}-7-methoxy-1,3-benzoxazol-5-yl) [5-(1-hydroxyethyl)-2,2,5-trimethylmorpholin-4-yl]methanone] |
| 50 | 51 | CCC1C(=O)N2CCC2CN1C(=O)c1cc(OC)c2oc(NCc3cc(Cl)ccn3)nc2c1 (stereo not shown) [Example 73, 4-[(2-{[(4-Chloropyridin-2-yl)methyl]amino}-7-methoxy-1,3-benzoxazol-5-yl)carbonyl]-3-ethyl-1,4-diazabicyclo[4.2.0]octan-2-one] |
| 27 | 5.3 | COc1cc(C(=O)N2CC(C)CCC2CC2(O)CC2)cc2nc(NCc3cc(Cl)ccn3)oc12 (stereo not shown) [Example 87, (2-{[(4-Chloropyridin-2-yl)methyl]amino}-7-methoxy-1,3-benzoxazol-5-yl){2-[(1-hydroxycyclopropyl)methyl]-5-methylpiperidin-1-yl}methanone] |
| 27 | 17 | [2H]C([2H])(C)O[C@@H]1CC(CO)N(C(=O)c2cc(OC)c3oc(NC(C)c4cc(Cl)ccn4)nc3c2)C1 (stereo partly drawn) [Example 97, (2-{[1-(4-Chloropyridin-2-yl)ethyl]amino}-7-methoxy-1,3-benzoxazol-5-yl)[(4R)-4-[(1,1-^2H2)ethyloxy]-2-(hydroxymethyl)pyrrolidin-1-yl]methanone] |
